# Assay results taken from PubChem BioAssay AID1963842 (Molecular Pharmacology Branch, DTP, NCI, 2024).
# Tested on: 677734-321-R-J1-PDC complex spheroid viability
# Assay: Anticancer human tumor 677734-321-R-J1-PDC patient-derived soft tissue sarcoma cell line growth inhibition [POLQ]
# Details: for IC50: curve of first compound; for viability, T/C: stronger effect = lower value
# Outline: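 Patient-derived tumour cells were co-cultured with HUVEC and mesenchymal stem cells as multicellular spheroids at 37 °C. They were treated with POLQ inhibitors (novobiocin, ART-558, RP6685) alone or combined with other agents. Top concentrations were at or near clinical Cmax (otherwise 10 microM; SN-38 at 1 microM), decreasing in half-log steps.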
# [1] = second compound 0.0316 µM, first compound 0.0316 µM
# [2] = second compound 0.0316 µM, first compound 0.1 µM
# [3] = second compound 0.0316 µM, first compound 0.316 µM
# [4] = second compound 0.0316 µM, first compound 1 µM
# [5] = second compound 0.0316 µM, first compound 3.16 µM
# [6] = second compound 0.0316 µM, first compound 10 µM
# [7] = second compound 0.1 µM, first compound 0.0316 µM
# [8] = second compound 0.1 µM, first compound 0.1 µM
# [9] = second compound 0.1 µM, first compound 0.316 µM
# [10] = second compound 0.1 µM, first compound 1 µM
# [11] = second compound 0.1 µM, first compound 3.16 µM
# [12] = second compound 0.1 µM, first compound 10 µM
# [13] = second compound 0.316 µM, first compound 0.0316 µM
# [14] = second compound 0.316 µM, first compound 0.1 µM
# [15] = second compound 0.316 µM, first compound 0.316 µM
# [16] = second compound 0.316 µM, first compound 1 µM
# [17] = second compound 0.316 µM, first compound 3.16 µM
# [18] = second compound 0.316 µM, first compound 10 µM
# [19] = second compound 1 µM, first compound 0.0316 µM
# [20] = second compound 1 µM, first compound 0.1 µM
# [21] = second compound 1 µM, first compound 0.316 µM
# [22] = second compound 1 µM, first compound 1 µM
# [23] = second compound 1 µM, first compound 3.16 µM
# [24] = second compound 1 µM, first compound 10 µM
# [25] = second compound 3.16 µM, first compound 0.0316 µM
# [26] = second compound 3.16 µM, first compound 0.1 µM
# [27] = second compound 3.16 µM, first compound 0.316 µM
# [28] = second compound 3.16 µM, first compound 1 µM
# [29] = second compound 3.16 µM, first compound 3.16 µM
# [30] = second compound 3.16 µM, first compound 10 µM
# [31] = second compound 10 µM, first compound 0.0316 µM
# [32] = second compound 10 µM, first compound 0.1 µM
# [33] = second compound 10 µM, first compound 0.316 µM
# [34] = second compound 10 µM, first compound 1 µM
# [35] = second compound 10 µM, first compound 3.16 µM
# [36] = second compound 10 µM, first compound 10 µM
# 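Further: spheroids exposed to compounds for one week.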
# 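Wherever viability, T/C is given: 100% = vehicle DMSO treated spheroids.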
compound,measurement,setting,value
CC1COCCN1c1cc(C2(S(C)(=N)=O)CC2)nc(-c2ccnc3[nH]ccc23)n1 (stereo not drawn) + Cc1cccc(N(C)C(=O)C2C(O)CCN2c2nc(C)cc(C(F)(F)F)c2C#N)c1,IC50,second compound 0.0316 µM,4.03 µM
same,IC50,second compound 0.1 µM,3.86 µM
same,IC50,second compound 0.316 µM,3.91 µM
same,IC50,second compound 1 µM,3.79 µM
same,IC50,second compound 3.16 µM,3.1 µM
same,IC50,second compound 10 µM,3.03 µM
same,"viability, T/C",[1],106%
same,"viability, T/C",[2],105%
same,"viability, T/C",[3],104%
same,"viability, T/C",[4],91%
same,"viability, T/C",[5],57%
same,"viability, T/C",[6],24.2%
same,"viability, T/C",[7],106%
same,"viability, T/C",[8],110%
same,"viability, T/C",[9],96.5%
same,"viability, T/C",[10],92.9%
same,"viability, T/C",[11],53.6%
same,"viability, T/C",[12],28.6%
same,"viability, T/C",[13],117%
same,"viability, T/C",[14],108%
same,"viability, T/C",[15],100%
same,"viability, T/C",[16],90.4%
same,"viability, T/C",[17],54.3%
same,"viability, T/C",[18],22%
same,"viability, T/C",[19],109%
same,"viability, T/C",[20],102%
same,"viability, T/C",[21],98.5%
same,"viability, T/C",[22],98.3%
same,"viability, T/C",[23],54.5%
same,"viability, T/C",[24],25.4%
same,"viability, T/C",[25],104%
same,"viability, T/C",[26],103%
same,"viability, T/C",[27],99.7%
same,"viability, T/C",[28],90.6%
same,"viability, T/C",[29],49.2%
same,"viability, T/C",[30],37.8%
same,"viability, T/C",[31],102%
same,"viability, T/C",[32],96.5%
same,"viability, T/C",[33],93.1%
same,"viability, T/C",[34],87%
same,"viability, T/C",[35],48.3%
same,"viability, T/C",[36],26%
CNCc1ccc(-c2[nH]c3cc(F)cc4c3c2CCNC4=O)cc1 + COC1C(OC(N)=O)C(O)C(Oc2ccc3c(O)c(NC(=O)c4ccc(O)c(CC=C(C)C)c4)c(=O)oc3c2C)OC1(C)C,IC50,second compound 0.0316 µM,> 10 µM
same,IC50,second compound 0.1 µM,> 10 µM
same,IC50,second compound 0.316 µM,> 10 µM
same,IC50,second compound 1 µM,> 10 µM
same,IC50,second compound 3.16 µM,> 10 µM
same,IC50,second compound 10 µM,> 10 µM
same,"viability, T/C",[1],101%
same,"viability, T/C",[2],103%
same,"viability, T/C",[3],96.6%
same,"viability, T/C",[4],107%
same,"viability, T/C",[5],111%
same,"viability, T/C",[6],103%
same,"viability, T/C",[7],103%
same,"viability, T/C",[8],101%
same,"viability, T/C",[9],101%
same,"viability, T/C",[10],109%
same,"viability, T/C",[11],104%
same,"viability, T/C",[12],96.5%
same,"viability, T/C",[13],107%
same,"viability, T/C",[14],102%
same,"viability, T/C",[15],106%
same,"viability, T/C",[16],106%
same,"viability, T/C",[17],104%
same,"viability, T/C",[18],103%
same,"viability, T/C",[19],114%
same,"viability, T/C",[20],99.8%
same,"viability, T/C",[21],101%
same,"viability, T/C",[22],107%
same,"viability, T/C",[23],106%
same,"viability, T/C",[24],104%
same,"viability, T/C",[25],102%
same,"viability, T/C",[26],106%
same,"viability, T/C",[27],100%
same,"viability, T/C",[28],110%
same,"viability, T/C",[29],108%
same,"viability, T/C",[30],101%
same,"viability, T/C",[31],106%
same,"viability, T/C",[32],102%
same,"viability, T/C",[33],106%
same,"viability, T/C",[34],108%
same,"viability, T/C",[35],105%
same,"viability, T/C",[36],101%
O=C(Nc1ccc(O)c(NS(=O)(=O)c2ccc(F)cc2)c1)c1ccc(-c2ccccc2)cc1 + COC1C(OC(N)=O)C(O)C(Oc2ccc3c(O)c(NC(=O)c4ccc(O)c(CC=C(C)C)c4)c(=O)oc3c2C)OC1(C)C,IC50,second compound 0.0316 µM,7.22 µM
same,IC50,second compound 0.1 µM,7.58 µM
same,IC50,second compound 0.316 µM,8.78 µM
same,IC50,second compound 1 µM,7.48 µM
same,IC50,second compound 3.16 µM,8.18 µM
same,IC50,second compound 10 µM,6.87 µM
same,"viability, T/C",[1],112%
same,"viability, T/C",[2],100%
same,"viability, T/C",[3],102%
same,"viability, T/C",[4],101%
same,"viability, T/C",[5],85.9%
same,"viability, T/C",[6],35.6%
same,"viability, T/C",[7],104%
same,"viability, T/C",[8],106%
same,"viability, T/C",[9],99.2%
same,"viability, T/C",[10],101%
same,"viability, T/C",[11],101%
same,"viability, T/C",[12],33.8%
same,"viability, T/C",[13],111%
same,"viability, T/C",[14],99.9%
same,"viability, T/C",[15],104%
same,"viability, T/C",[16],106%
same,"viability, T/C",[17],97.9%
same,"viability, T/C",[18],43.8%
same,"viability, T/C",[19],108%
same,"viability, T/C",[20],109%
same,"viability, T/C",[21],110%
same,"viability, T/C",[22],101%
same,"viability, T/C",[23],92.1%
same,"viability, T/C",[24],35.8%
same,"viability, T/C",[25],109%
same,"viability, T/C",[26],101%
same,"viability, T/C",[27],108%
same,"viability, T/C",[28],103%
same,"viability, T/C",[29],84.9%
same,"viability, T/C",[30],42.7%
same,"viability, T/C",[31],103%
same,"viability, T/C",[32],108%
same,"viability, T/C",[33],102%
same,"viability, T/C",[34],100%
same,"viability, T/C",[35],81.7%
same,"viability, T/C",[36],34.6%
COc1ccc([C@@H](O)c2cc(-c3ncnc4cc(N5CCOCC5)ccc34)c(F)cc2Cl)nn1 + Cc1cccc(N(C)C(=O)C2C(O)CCN2c2nc(C)cc(C(F)(F)F)c2C#N)c1,IC50,second compound 0.0316 µM,> 10 µM
same,IC50,second compound 0.1 µM,9.31 µM
same,IC50,second compound 0.316 µM,9.22 µM
same,IC50,second compound 1 µM,> 10 µM
same,IC50,second compound 3.16 µM,> 10 µM
same,IC50,second compound 10 µM,7.64 µM
same,"viability, T/C",[1],109%
same,"viability, T/C",[2],103%
same,"viability, T/C",[3],96.2%
same,"viability, T/C",[4],93.4%
same,"viability, T/C",[5],74.9%
same,"viability, T/C",[6],53.7%
same,"viability, T/C",[7],99.3%
same,"viability, T/C",[8],98.9%
same,"viability, T/C",[9],95%
same,"viability, T/C",[10],92.9%
same,"viability, T/C",[11],79.4%
same,"viability, T/C",[12],47.6%
same,"viability, T/C",[13],105%
same,"viability, T/C",[14],101%
same,"viability, T/C",[15],93.8%
same,"viability, T/C",[16],91.3%
same,"viability, T/C",[17],77.4%
same,"viability, T/C",[18],47.2%
same,"viability, T/C",[19],107%
same,"viability, T/C",[20],97.8%
same,"viability, T/C",[21],92.7%
same,"viability, T/C",[22],90.1%
same,"viability, T/C",[23],81.2%
same,"viability, T/C",[24],55.5%
same,"viability, T/C",[25],102%
same,"viability, T/C",[26],101%
same,"viability, T/C",[27],90.8%
same,"viability, T/C",[28],95.7%
same,"viability, T/C",[29],68.7%
same,"viability, T/C",[30],50.9%
same,"viability, T/C",[31],102%
same,"viability, T/C",[32],90.4%
same,"viability, T/C",[33],94.6%
same,"viability, T/C",[34],92.5%
same,"viability, T/C",[35],69.7%
same,"viability, T/C",[36],44%
